# Experimental data as given in ChEMBL document CHEMBL1129332, “2-Phenyl-4-quinolinecarboxamides: a novel class of potent and selective non-peptide competitive antagonists for the human neurokinin-3 receptor” (J Med Chem, 1996).
# Columns and labels:
# Substance-P receptor [1] = molecular target: T1, Substance-P receptor (Homo sapiens, UniProt P25103); experiment: Binding Affinity of [3H]- substance P towards Tachykinin receptor 1-CHO cell membranes (n=3-8)
# Substance-K receptor = molecular target: T2, Substance-K receptor (Homo sapiens, UniProt P21452); type: cell membranes, CHO
# T2 sequence (P21452 whole entry): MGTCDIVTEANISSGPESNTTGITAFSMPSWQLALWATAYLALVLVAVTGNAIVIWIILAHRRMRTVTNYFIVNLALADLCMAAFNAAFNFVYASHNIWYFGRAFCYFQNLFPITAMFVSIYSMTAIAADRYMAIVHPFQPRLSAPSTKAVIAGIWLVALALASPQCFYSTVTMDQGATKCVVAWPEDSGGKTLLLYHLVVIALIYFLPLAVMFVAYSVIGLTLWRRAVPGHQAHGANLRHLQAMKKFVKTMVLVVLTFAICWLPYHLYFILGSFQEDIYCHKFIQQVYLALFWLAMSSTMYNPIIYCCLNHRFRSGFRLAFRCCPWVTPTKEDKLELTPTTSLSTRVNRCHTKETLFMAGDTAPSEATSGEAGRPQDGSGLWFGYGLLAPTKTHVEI
# Substance-P receptor [2] = molecular target: T1, Substance-P receptor; experiment: Binding affinity against hTachykinin receptor 1 for the displacement of [3H]-substance P binding from Tachykinin receptor 1 CHO membrane
# Oryctolagus cuniculus = organism: Oryctolagus cuniculus; experiment: Antagonism of senktide-induced contraction in rabbit isolated iris sphincter muscle; type: functional
# T1 sequence (P25103 whole entry): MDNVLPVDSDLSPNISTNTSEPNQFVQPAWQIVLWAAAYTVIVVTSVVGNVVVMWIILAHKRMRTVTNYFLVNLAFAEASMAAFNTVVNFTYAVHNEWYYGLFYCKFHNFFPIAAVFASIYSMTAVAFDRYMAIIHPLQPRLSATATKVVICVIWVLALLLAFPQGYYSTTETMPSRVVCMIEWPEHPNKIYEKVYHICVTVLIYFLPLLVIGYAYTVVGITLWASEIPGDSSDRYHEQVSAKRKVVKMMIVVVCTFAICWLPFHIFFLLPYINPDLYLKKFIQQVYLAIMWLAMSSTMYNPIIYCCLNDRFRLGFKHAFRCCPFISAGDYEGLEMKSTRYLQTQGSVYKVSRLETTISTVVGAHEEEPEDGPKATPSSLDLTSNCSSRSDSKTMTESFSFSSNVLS
Ki (Substance-P receptor [1]) [nM],Ki (Substance-K receptor) [nM],Ki (Substance-P receptor [2]) [nM],Compound,Kb (Oryctolagus cuniculus) [nM]
> 100000,1220,,COC(=O)[C@@H](NC(=O)c1cc(-c2ccccc2)nc2ccccc12)c1ccccc1,
> 100000,8330,,COC(=O)[C@H](NC(=O)c1cc(-c2ccccc2)nc2ccccc12)c1ccccc1,
> 100000,2950,,COC(=O)C(NC(=O)c1cc(-c2ccccc2)nc2ccccc12)c1ccccc1 (configuration not stated),
> 100000,277,,CC[C@H](NC(=O)c1c(C)c(-c2ccccc2)nc2ccccc12)c1ccccc1 [SB-222200],
,,> 10000,COc1ccc2c(C(=O)NCc3ccccc3)cc(-c3ccccc3)nc2c1,
> 100000,237,,CC[C@H](NC(=O)c1cc(-c2ccccc2)nc2ccccc12)c1ccccc1 [AZD-7624],
,,,CC(=O)N(C)C1(c2ccccc2)CCN(CCC[C@]2(c3ccc(Cl)c(Cl)c3)CCCN(C(=O)c3ccccc3)C2)CC1 [OSANETANT],2
